Results published in patent publication US5364882A, “Oxysulfonyl urea ACAT inhibitors” (Warner-Lambert Company, priority 1992, dated 1994).

Legend:
[1] = APCC in vivo screen: blood cholesterol in rats on high fat, high cholesterol diet with 0.5% cholic acid; set-up: species or system male Sprague-Dawley rats; settings: 30 mg/kg single dose at 4 PM, high cholesterol diet overnight, blood at 8 AM, vehicle CMC/Tween
Method: In one in vivo screen designated APCC, male Sprague-Dawley rats (200 to 225 g) were randomly divided into treatment groups and dosed at 4 PM with either vehicle (CMC/Tween) or suspensions of compounds in vehicle (30 mg/kg). The normal chow diet was then replaced with a high fat, high cholesterol diet with 0.5% cholic acid. The rats consumed this diet ad libitum during the night and were sacrificed at 8 AM to obtain blood samples for cholesterol analysis using standard procedures. Statistical differences between mean cholesterol values for the same vehicle were determined using analysis of variance followed by Fisher's least significant test.

[2] = target: T1, acyl-CoA: cholesterol acyltransferase (ACAT) (Oryctolagus cuniculus, UniProt G1SFD9); test: In vitro ACAT inhibition (IAI): formation of radiolabeled cholesterol oleate from radiolabeled oleic acid in rabbit intestinal microsomes; format: biochemical; settings: concentration required to inhibit enzyme activity by 50%
T1 sequence (G1SFD9 1-524): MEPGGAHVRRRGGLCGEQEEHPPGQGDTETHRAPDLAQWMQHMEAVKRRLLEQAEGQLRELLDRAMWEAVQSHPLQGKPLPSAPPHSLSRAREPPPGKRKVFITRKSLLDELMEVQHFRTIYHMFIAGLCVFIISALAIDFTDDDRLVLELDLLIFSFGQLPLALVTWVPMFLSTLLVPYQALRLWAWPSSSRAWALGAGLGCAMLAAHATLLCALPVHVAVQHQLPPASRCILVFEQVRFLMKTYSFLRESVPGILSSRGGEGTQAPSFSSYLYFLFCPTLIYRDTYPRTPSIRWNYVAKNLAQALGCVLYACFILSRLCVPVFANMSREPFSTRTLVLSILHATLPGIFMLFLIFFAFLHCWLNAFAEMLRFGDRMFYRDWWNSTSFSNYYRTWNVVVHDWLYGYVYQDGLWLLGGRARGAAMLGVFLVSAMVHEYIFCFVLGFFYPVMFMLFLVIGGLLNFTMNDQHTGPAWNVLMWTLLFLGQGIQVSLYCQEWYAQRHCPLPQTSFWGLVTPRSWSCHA
Method: The ability of representative compounds of the present invention to inhibit ACAT was measured using an in vitro test more fully described in F. J. Field and R. G. Salone, Biochemica et Biophysica 712:557-570 (1982). The test assesses the ability of a test compound to inhibit the acylation of cholesterol by oleic acid by measuring the amount of radiolabeled cholesterol oleate formed from radiolabeled oleic acid in a tissue preparation containing rabbit intestinal microsomes.

## CCCCCCCCCCCCOS(=O)(=O)NC(=O)Nc1c(C(C)C)cccc1C(C)C.[Na]
[1]
  % Change (mg/dl) in cholesterol: -58%

## CCCCCCCCCCOS(=O)(=O)NC(=O)Nc1c(C(C)C)cccc1C(C)C [Example 5, Decyl [[[2,6-bis(1-methylethyl)phenyl]amino]carbonyl]sulfamate]
[2]
  IC50: > 10 µM
[1]
  % Change (mg/dl) in cholesterol: -31%

## CCCCCCCCCCCCOS(=O)(=O)NC(=O)Nc1c(C(C)C)cccc1C(C)C [Example 3, Dodecyl [[[2,6-bis(1-methylethyl)phenyl]amino]carbonyl]sulfamate]
[1]
  % Change (mg/dl) in cholesterol: -75%

## CCCCCCOS(=O)(=O)NC(=O)Nc1c(C(C)C)cccc1C(C)C [Example 1, Hexyl [[[2,6-bis(1-methylethyl)phenyl]amino]carbonyl]sulfamate]
[1]
  % Change (mg/dl) in cholesterol: -56%

## CC(C)c1cccc(C(C)C)c1NC(=O)NS(=O)(=O)Oc1c(C(C)C)cccc1C(C)C [Example 7, 2,6-bis(1-methylethyl)phenyl [[[2,6-bis (1-methylethyl)phenyl]amino]carbonyl]sulfamate]
[2]
  IC50: 35 µM
[1]
  % Change (mg/dl) in cholesterol: -51%

## CCCCCCCCCCC(C)OS(=O)(=O)NC(=O)Nc1c(C(C)C)cccc1C(C)C (racemic) [Example 8, (±) 1-Methylundecyl [[[2,6-bis(1-methylethyl)phenyl]amino]carbonyl]sulfamate]
[1]
  % Change (mg/dl) in cholesterol: -68%

## CCCCCCC(C)OS(=O)(=O)NC(=O)Nc1c(C(C)C)cccc1C(C)C (racemic) [Example 6, (±) 1-Methylheptyl [[[2,6-bis(1-methylethyl)phenyl]amino]carbonyl]sulfamate]
[2]
  IC50: 8.7 µM
[1]
  % Change (mg/dl) in cholesterol: -43%

## CCCCCCCCCCCCCCCCCCOS(=O)(=O)NC(=O)Nc1c(C(C)C)cccc1C(C)C [Example 2, Octadecyl [[[2,6-bis(1-methylethyl)phenyl]amino]carbonyl]sulfamate]
[1]
  % Change (mg/dl) in cholesterol: -42%
